Consider 23 compounds from patent US20230339939A1 (Bayer Aktiengesellschaft, priority 2020, published 2023).

In assay [1] the target is T1, CSNK1A1 (Homo sapiens (Human), UniProt P48729). Put plainly: CSNK1A1 High ATP Assay (ADP-Glo, 1 mM ATP). In kind it is biochemical. The settings on record: median, read-out: CSNK1A1 high ATP assay IC50 [mol/l] (median). An outline of the steps: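 Kinase activity taken as ADP generated, quantified by ADP-Glo luminescence after 1 h ATP depletion and 1 h detection at 22 °C. Enzyme is GST–full-length human CSNK1A1 (insect cell-expressed), pre-bound to compound for 15 min, with phosphopeptide substrate and 1 mM ATP.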
T1 sequence (P48729 whole entry): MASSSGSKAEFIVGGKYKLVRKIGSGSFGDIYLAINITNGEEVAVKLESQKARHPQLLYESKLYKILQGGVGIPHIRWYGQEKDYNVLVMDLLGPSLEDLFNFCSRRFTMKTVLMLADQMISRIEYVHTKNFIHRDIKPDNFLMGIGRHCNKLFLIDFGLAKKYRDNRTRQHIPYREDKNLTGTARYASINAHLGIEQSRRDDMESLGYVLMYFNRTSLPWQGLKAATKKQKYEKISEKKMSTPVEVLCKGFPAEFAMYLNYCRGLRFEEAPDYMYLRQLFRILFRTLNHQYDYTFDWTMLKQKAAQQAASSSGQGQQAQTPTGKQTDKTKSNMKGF

Assay [2] deals with T1, CSNK1A1. Put plainly: CSNK1A1 Assay 2 (ADP-Glo, 1 μM ATP, substrate biotin-Ahx-KRRRAL-pS-VASLPGL). The assay is classed as biochemical. Conditions: median, read-out: CSNK1A1 Assay 2 IC50 [mol/l] (median). Summed up: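 Activity read as ADP generated (ADP-Glo luciferase luminescence, 1 h detection steps at 22 °C). Enzyme was insect-cell-expressed GST–full-length human CSNK1A1, compound-preincubated 15 min before reaction with phosphopeptide substrate and 1 μM ATP in 50 mM HEPES pH 7.5, 10 mM MgCl2.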

As to `O=C(Cc1ccc(F)cc1)Nc1cc(-c2[nH]c3cc(F)cnc3c2-c2ccccc2)ccn1` [Example 10, 2-(4-fluorophenyl)-N-[4-(6-fluoro-3-phenyl-1H-pyrrolo[3,2-b]pyridin-2-yl)pyridin-2-yl]acetamide], the IC50 was found to be 302 nM on CSNK1A1 [1] and 3.83 nM on CSNK1A1 [2].

For the compound `O=C(Cc1ccc(F)cc1)Nc1cc(-c2[nH]c3cccnc3c2-c2ccccc2)ccn1` [Example 14, 2-(4-fluorophenyl)-N-[4-(3-phenyl-1H-pyrrolo[3,2-b]pyridin-2-yl)pyridin-2-yl]acetamide], the IC50 at CSNK1A1 [1] turned out to be 45.5 nM; at CSNK1A1 [2], 1.04 nM.

For the compound `O=C(Cc1ccc(F)cc1)Nc1cc(-c2[nH]c3cccnc3c2-c2cccc(F)c2)ccn1` [Example 15, 2-(4-fluorophenyl)-N-{4-[3-(3-fluorophenyl)-1H-pyrrolo[3,2-b]pyridin-2-yl]pyridin-2-yl}acetamide], the IC50 is 87.7 nM at CSNK1A1 [1] and 1.87 nM at CSNK1A1 [2].

Regarding `O=C(Cc1ccc(F)cc1)Nc1cc(-c2[nH]c3cccnc3c2-c2ncccn2)ccn1` [Example 16, 2-(4-fluorophenyl)-N-{4-[3-(pyrimidin-2-yl)-1H-pyrrolo[3,2-b]pyridin-2-yl]pyridin-2-yl}acetamide], the IC50 on CSNK1A1 [1] was 97.9 nM; at CSNK1A1 [2], 4.77 nM.

With `O=C(Cc1ccc(F)cc1)Nc1cc(-c2[nH]c3cccnc3c2-c2ccc(Cl)s2)ccn1` [Example 17, N-{4-[3-(5-chlorothiophen-2-yl)-1H-pyrrolo[3,2-b]pyridin-2-yl]pyridin-2-yl}-2-(4-fluorophenyl)acetamide], the IC50 on CSNK1A1 [1] is 87.3 nM; on CSNK1A1 [2], 1.88 nM.

As to `O=C(Cc1ccc(F)cc1)Nc1cc(-c2[nH]c3ccnnc3c2-c2ccccn2)ccn1` [Example 21, 2-(4-fluorophenyl)-N-{4-[7-(pyridin-2-yl)-5H-pyrrolo[3,2-c]pyridazin-6-yl]pyridin-2-yl}acetamide], the IC50 on CSNK1A1 [1] came out at 25.1 nM; at CSNK1A1 [2], 1.66 nM.

In the case of `O=C(Cc1ccc(F)cc1)Nc1cc(-c2[nH]c3c(Cl)ccnc3c2-c2ccccn2)ccn1` [Example 22, N-{4-[7-chloro-3-(pyridin-2-yl)-1H-pyrrolo[3,2-b]pyridin-2-yl]pyridin-2-yl}-2-(4-fluorophenyl)acetamide], the IC50 is 21.8 nM at CSNK1A1 [1] and 1.6 nM at CSNK1A1 [2].

As for `O=C(Cc1ccc(F)cc1)Nc1cc(-c2[nH]c3ccc(Cl)nc3c2-c2ccccn2)ccn1` [Example 23, N-{4-[5-chloro-3-(pyridin-2-yl)-1H-pyrrolo[3,2-b]pyridin-2-yl]pyridin-2-yl}-2-(4-fluorophenyl)acetamide], the figures for the IC50 on CSNK1A1 [1] and on CSNK1A1 [2] were 40.9 nM and 0.941 nM, respectively.

For `Cc1cc2[nH]c(-c3ccnc(NC(=O)Cc4ccc(F)cc4)c3)c(-c3ccccn3)c2nc1F` [Example 27, N-{4-[5-fluoro-6-methyl-3-(pyridin-2-yl)-1H-pyrrolo[3,2-b]pyridin-2-yl]pyridin-2-yl}-2-(4-fluorophenyl)acetamide], the IC50 at CSNK1A1 [1] was found to be 11.2 nM; on CSNK1A1 [2] it was 1.6 nM.

Regarding `COc1ccnc2c(-c3ccccn3)c(-c3ccnc(NC(=O)Cc4ccc(F)cc4)c3)[nH]c12` [Example 31, 2-(4-fluorophenyl)-N-{4-[7-methoxy-3-(pyridin-2-yl)-1H-pyrrolo[3,2-b]pyridin-2-yl]pyridin-2-yl}acetamide], the figures for the IC50 on CSNK1A1 [1] and at CSNK1A1 [2] were 5.63 nM and 2.5 nM, respectively.

As to `COc1ccc2[nH]c(-c3ccnc(NC(=O)Cc4ccc(F)cc4)c3)c(-c3ccccn3)c2n1` [Example 32, 2-(4-fluorophenyl)-N-{4-[5-methoxy-3-(pyridin-2-yl)-1H-pyrrolo[3,2-b]pyridin-2-yl]pyridin-2-yl}acetamide], the IC50 at CSNK1A1 [1] was found to be 23.3 nM; at CSNK1A1 [2], 2.5 nM.

As to `C=Cc1ccnc2c(-c3ccccn3)c(-c3ccnc(NC(=O)Cc4ccc(F)cc4)c3)[nH]c12` [Example 33, N-{4-[7-ethenyl-3-(pyridin-2-yl)-1H-pyrrolo[3,2-b]pyridin-2-yl]pyridin-2-yl}-2-(4-fluorophenyl)acetamide], the figures for the IC50 at CSNK1A1 [1] and at CSNK1A1 [2] were 29 nM and 3.97 nM, respectively.

For the compound `CCc1ccnc2c(-c3ccccn3)c(-c3ccnc(NC(=O)Cc4ccc(F)cc4)c3)[nH]c12` [Example 34, N-{4-[7-ethyl-3-(pyridin-2-yl)-1H-pyrrolo[3,2-b]pyridin-2-yl]pyridin-2-yl}-2-(4-fluorophenyl)acetamide], the IC50 on CSNK1A1 [1] was 13.5 nM; at CSNK1A1 [2], 3.08 nM.

Take `O=C(Cc1ccc(F)cc1)Nc1cc(-c2[nH]c3c(C4CC4)ccnc3c2-c2ccccn2)ccn1` [Example 35, N-{4-[7-cyclopropyl-3-(pyridin-2-yl)-1H-pyrrolo[3,2-b]pyridin-2-yl]pyridin-2-yl}-2-(4-fluorophenyl)acetamide]: the IC50 was 6.39 nM on CSNK1A1 [1] and 2.79 nM on CSNK1A1 [2].

In the case of `COCCc1ccnc2c(-c3ccccn3)c(-c3ccnc(NC(=O)Cc4ccc(F)cc4)c3)[nH]c12` [Example 36, 2-(4-fluorophenyl)-N-{4-[7-(2-methoxyethyl)-3-(pyridin-2-yl)-1H-pyrrolo[3,2-b]pyridin-2-yl]pyridin-2-yl}acetamide], the figures for the IC50 at CSNK1A1 [1] and on CSNK1A1 [2] were 31.8 nM and 14.8 nM, respectively.

Turning to `CN1CCN(c2ccnc3c(-c4ccccn4)c(-c4ccnc(NC(=O)Cc5ccc(F)cc5)c4)[nH]c23)CC1` [Example 38, 2-(4-fluorophenyl)-N-{4-[7-(4-methylpiperazin-1-yl)-3-(pyridin-2-yl)-1H-pyrrolo[3,2-b]pyridin-2-yl]pyridin-2-yl}acetamide], the IC50 at CSNK1A1 [1] was 19.8 nM; at CSNK1A1 [2], 3.32 nM.

Turning to `CN1CCC(N(C)c2ccnc3c(-c4ccccn4)c(-c4ccnc(NC(=O)Cc5ccc(F)cc5)c4)[nH]c23)CC1` [Example 39, 2-(4-fluorophenyl)-N-(4-{7-[methyl(1-methylpiperidin-4-yl)amino]-3-(pyridin-2-yl)-1H-pyrrolo[3,2-b]pyridin-2-yl}pyridin-2-yl)acetamide], the values for the IC50 on CSNK1A1 [1] and on CSNK1A1 [2] were 32.9 nM and 3.49 nM, respectively.

For `O=C(Cc1ccc(F)cc1)Nc1cc(-c2[nH]c3c(N4CCCC4=O)ccnc3c2-c2ccccn2)ccn1` [Example 40, 2-(4-fluorophenyl)-N-{4-[7-(2-oxopyrrolidin-1-yl)-3-(pyridin-2-yl)-1H-pyrrolo[3,2-b]pyridin-2-yl]pyridin-2-yl}acetamide], the IC50 on CSNK1A1 [1] was determined as 30.1 nM; on CSNK1A1 [2], 6.26 nM.

For `Cc1cc(CC(=O)Nc2cc(-c3[nH]c4cccnc4c3-c3ccccn3)ccn2)ccc1F` [Example 41, 2-(4-fluoro-3-methylphenyl)-N-{4-[3-(pyridin-2-yl)-1H-pyrrolo[3,2-b]pyridin-2-yl]pyridin-2-yl}acetamide], the IC50 at CSNK1A1 [1] is 19 nM; at CSNK1A1 [2] it was 4.03 nM.

On to `O=C(Cc1ccc(Cl)cc1)Nc1cc(-c2[nH]c3cccnc3c2-c2ccccn2)ccn1` [Example 42, 2-(4-chlorophenyl)-N-{4-[3-(pyridin-2-yl)-1H-pyrrolo[3,2-b]pyridin-2-yl]pyridin-2-yl}acetamide], for which the results for the IC50 on CSNK1A1 [1] and on CSNK1A1 [2] were 7.14 nM and 1.23 nM, respectively.

Regarding `O=C(Cc1ccccc1)Nc1cc(-c2[nH]c3cccnc3c2-c2ccccn2)ccn1` [Example 46, 2-phenyl-N-(4-(3-(pyridin-2-yl)-1H-pyrrolo[3,2-b]pyridin-2-yl)pyridin-2-yl)acetamide], the values for the IC50 on CSNK1A1 [1] and at CSNK1A1 [2] were 14.6 nM and 2.25 nM, respectively.

As to `O=C(Cc1ccc(F)cc1)Nc1cc(-c2[nH]c3cccnc3c2-c2ncccn2)ccn1` [Example 51, 2-(4-fluorophenyl)-N-{4-[3-(pyrimidin-2-yl)-1H-pyrrolo[3,2-b]pyridin-2-yl]pyridin-2-yl}acetamide], the values for the IC50 on CSNK1A1 [1] and on CSNK1A1 [2] were 180 nM and 7.93 nM, respectively.

For `CC(C(=O)Nc1cc(-c2[nH]c3cc(Cl)cnc3c2-c2ccccn2)ccn1)c1ccc(F)cc1` (stereo not shown) [Example 52, N-{4-[6-chloro-3-(pyridin-2-yl)-1H-pyrrolo[3,2-b]pyridin-2-yl]pyridin-2-yl}-2-(4-fluorophenyl)propanamide], the IC50 at CSNK1A1 [1] is 382 nM; at CSNK1A1 [2], 6.26 nM.
